Test results as given in publication PMC9295539 (Antimicrobial Agents and Chemotherapy, 2022).
Where two headings read alike, the source gives them in different places.

Columns and labels:
[1] = tested on: Giardia lamblia GS clone H7; test: G. lamblia GS clone H7 trophozoite growth, ATP-based bioluminescence assay (BacTiter-Glo), 1,536-well; format: cell-based; details: for EC50: Giardia duodenalis, 48 h, read-out: 48-h Giardia GS clone H7 EC50; for Selectivity index (CC50/EC50): HEK293T CC50 / G. lamblia GS clone H7 EC50
Protocol: (§1) Compounds were screened at 5 μM with metronidazole (40 μM) as an inhibitor control and dimethyl sulfoxide (DMSO) as a neutral control. […] These primary hits were immediately assayed for reconfirmation and mammalian cytotoxicity against HEK293T cells in an 8-point dose-response format.
The primary screen was conducted at 5 μM. […] All source plates were 384-well acoustic, transfer-compatible plates with compounds prediluted in DMSO at either 2 mM or 10 mM. […] Primary screening was done with a single replicate, whereas dose-response testing was carried out in triplicate.
To prevent attachment to the bottle and tubing of the dispenser cassette, the bottle containing the culture was kept on ice throughout the dispensing process. […] The bags were heat sealed and the anaerobic generator was activated according to the manufacturer’s instructions. […] Luminescence was read on a ViewLux uHTS microplate imager (PerkinElmer) with medium-sensitivity luminescence at 30 s of exposure.
(§2) Relative luminescence unit (RLU) values were analyzed in Genedata Screener (v13.0-Standard). RLU values were normalized to neutral controls minus inhibitors (DMSO-treated wells minus metronidazole-treated wells). For single-point primary assay plates, an additional run-wise median correction was applied to reduce screen artifacts, whereas no corrections were applied to triplicate dose-response plates. For the mammalian cytotoxicity assays, RLU values were uploaded into Genedata Screener, and the data were normalized to those for DMSO-treated wells minus puromycin-treated wells.

[2] = HEK293T cytotoxicity counterscreen, luminescent ATP viability assay; details: human
Protocol: as §1
Experimental details for the assays were described previously ([50]). […] Assays were performed as previously reported ([51]).
as §2

[3] = tested on: G. lamblia CBG99 (assemblage A); test: G. lamblia CBG99 luciferase strain cell growth inhibition assay; format: cell-based, Giardia lamblia; details: G. lamblia CBG99, compound at 5 μM; for inhibition at 5 µM: Giardia duodenalis
Protocol: Subsequent assays, including the mouse model of infection, used the G. lamblia click beetle green (CBG99) strain, which was grown and assayed as previously described ([11], [49]).
In vitro reconfirmation and expanded tests against EGFR-TKIs using the G. lamblia CBG99 strain were performed as previously described ([11]). […] The PK studies were performed in groups of 3 mice per compound. […] All animal experiments were approved by the Institutional Animal Care and Use Committees at the University of Washington.

[4] = 8-point dose response, triplicate

| EC50 [1, 4] [µM] | Structure (SMILES) | Selectivity index (CC50/EC50) [1] | CC50 at 72 h ([2]; HEK293T cells) [µM] | also measured |
| --- | --- | --- | --- | --- |
| 5.8 ± 0.13 | O=[N+]([O-])c1ccc(-c2nc3ccccc3[nH]2)o1 [2-(5-Nitro-2-furyl) benzimidazole] | >4 | > 25 | – |
| – | N#CC(C#N)=Cc1ccc(O)c(O)c1 [AG-18] | – | – | inhibition of G. lamblia growth [3]: ≤ 50% |
| – | N#C/C(=C\c1ccc(O)c(O)c1)C(=O)NCc1ccccc1 [AG-490] | – | – | inhibition of G. lamblia growth [3]: ≤ 50% |
| – | COc1cc2ncnc(Nc3cccc(Cl)c3)c2cc1OC [AG-1478] | – | – | inhibition of G. lamblia growth [3]: ≤ 50% |
| – | CNC(=O)CN1CCC(Oc2cc3c(Nc4cccc(Cl)c4F)ncnc3cc2OC)CC1 [AZD8931] | – | – | inhibition at 5 µM [3]: ≤ 50% |
| 7.11 ± 0.28 | CC(=O)Nc1ncc([N+](=O)[O-])s1 [Aminitrozole] | >3 | > 25 | – |
| 0.72 ± 0.06 | Cn1c([N+](=O)[O-])cnc1/C=C/c1ccnc(N)n1 [Azanidazole] | >35 | > 25 | – |
| 2.43 ± 0.23 | Cc1ncc([N+](=O)[O-])n1CCOC(=O)c1ccccc1 [Benzoyl metronidazole] | >10 | > 25 | – |
| 3.01 ± 0.06 | COC(=S)NCCn1c([N+](=O)[O-])cnc1C [Carnidazole] | >8 | > 25 | – |
| 6.39 ± 0.16 | CSc1ccc(OCc2ncc([N+](=O)[O-])n2C)cc1 [Fexinidazole] | >4 | > 25 | – |
| 6.11 ± 0.11 | Cn1c([N+](=O)[O-])cnc1/C=N/N1CC(CN2CCOCC2)OC1=O (stereo not drawn) [Moxnidazole] | >4 | > 25 | – |
| 6.42 ± 0.06 | O=C1NCCN1c1ncc([N+](=O)[O-])s1 [Niridazole] | >4 | – | CC50 at 72 h [2]: > 25 µM |
| 6.45 ± 0.11 | CC(=O)Oc1ccccc1C(=O)Nc1ncc([N+](=O)[O-])s1 [Nitazoxanide] | >4 | > 25 | – |
| 1.82 ± 0.04 | Cc1ncc([N+](=O)[O-])n1CC(O)CCl (stereo not drawn) [Ornidazole] | >14 | – | CC50 at 72 h [2]: > 25 µM |
| – | COc1cc2ncnc(Nc3cccc(Br)c3)c2cc1OC.Cl [PD153035-HCl] | – | – | inhibition of G. lamblia growth [3]: ≤ 50% |
| – | C=CC(=O)Nc1ccc2ncnc(Nc3cccc(Br)c3)c2c1 [PD168393] | – | – | inhibition of G. lamblia growth [3]: ≤ 50% |
| – | CS(=O)(=O)OCCN(CCBr)c1c(C(=O)NCCOP(=O)(O)O)cc([N+](=O)[O-])cc1[N+](=O)[O-] [PR-104] | >13 | – | EC50 [1]: 1.98 ± 0.07 µM; CC50 at 72 h [2]: > 25 µM |
| 1.85 ± 0.68 | Cc1ncc([N+](=O)[O-])n1CCc1ccncc1 [Panidazole] | >14 | > 25 | – |
| 5.78 ± 0.07 | CCCN(CCC)c1ccc(/N=N/c2ccccc2C(=O)O)cc1 [Propyl red] | >4 | > 25 | – |
| 2.49 ± 0.04 | Cn1c([N+](=O)[O-])cnc1N1CCN(S(C)(=O)=O)C1=O [Satranidazole] | >10 | > 25 | – |
| 6.57 ± 0.09 | Cc1ncc([N+](=O)[O-])n1CC(C)O (stereo not drawn) [Secnidazole] | >4 | – | CC50 at 72 h [2]: > 25 µM |
| 5.7 ± 0.08 | CCS(=O)(=O)CCn1c([N+](=O)[O-])cnc1C [Tinidazole] | >4 | – | CC50 at 72 h [2]: > 25 µM |
| – | CN(C)C/C=C/C(=O)Nc1cc2c(Nc3ccc(F)c(Cl)c3)ncnc2cc1O[C@H]1CCOC1 [afatinib] | – | – | inhibition at 5 µM [3]: ≤ 50% |
| – | C=CC(=O)Nc1cccc(Oc2nc(Nc3ccc(N4CCN(C)CC4)c(F)c3)nc3[nH]ccc23)c1.O=C(O)/C=C\C(=O)O [avitinib maleate] | – | – | inhibition of G. lamblia growth [3]: ≤ 50% |
| – | COc1cc2ncnc(Nc3ccc(F)c(Cl)c3)c2cc1NC(=O)/C=C/CN1CCCCC1 [dacomitinib] | – | – | inhibition at 5 µM [3]: ≤ 50% |

| Structure (SMILES) | EC50 [1, 4] [µM] | Selectivity index (CC50/EC50) [1] | CC50 at 72 h ([2]; HEK293T cells) [µM] | also measured |
| --- | --- | --- | --- | --- |
| CS(=O)(=O)Nc1ccc(C(=O)O[C@@H](Cc2c(Cl)c[n+]([O-])cc2Cl)c2ccc(OC(F)F)c(OCC3CC3)c2)cc1OCC1CC1 [CHF-6001] | 2.03 ± 0.1 | >12 | > 25 | – |
